Measured values published in US6814951B1, “Acetaldehyde and malondialdehyde protein adducts as markers for alcohol liver disease” (The Board of Regents of the University of Nebraska, priority 1995, dated 2004).

Assays:
[1] = tested on: Balc/c mice; experiment: Immunization of mice with BSA or BSA-MAA, antiserum titration by ELISA; type: in vivo; details: antiserum tested on MSA and MSA-MAA
Procedure: The purpose of this study was to determine how modification of a soluble carrier protein with the MAA adduct alters the humoral immune response. Balc/c mice were immunized weekly by i.p. injection with 100 μg of either bovine serum albumin unmodified (BSA) or modified with MAA (BSA-MAA). Titration of antiserum was performed by ELISA on wells coated with either BSA, BSA-MAA, mouse albumin (MSA) and MSA-MAA. […] In mice immunized with lower concentrations of BSA-MAA, antibody titers decreased in a dose dependent manner to both BSA and BSA-MAA (>1:3200 at 100 μg to 1:2000 at 25 μg).

[2] = tested on: affinity-purified polyclonal antibody specific for MAA adducts; experiment: Competitive ELISA: inhibition of MAA-specific antibody binding to solid-phase BSA-MAA; set-up: species or system rabbit; details: for 50% inhibitory concentration: bovine serum albumin-MAA as solid phase antigen
Excerpt: A competitive ELISA was developed in order to detect the presence and to quantify the level of MDA/acetaldehyde modified proteins. Following the basic methodology developed by Roberts, et al, “A Sensitive Immunochemical Assay for Acetaminophen-Protein Adducts”, J Pharmacol Exp Ther, 1987; 241:527-533; Pumford, et al, “Immunochemical Quantitation of 3-(cystein-S-yl)Acetaminophen Adducts in Serum and Liver Proteins of Acetaminophen-Treated Mice”, J Pharmacol Exp Ther, 1989; 248:190-196, incorporated herein by reference, these assays were conducted by allowing a limiting amount of antibody to react with inhibitor, either standard or unknown, in the presence of excess solid phase antigen (MDA/acetaldehyde modified proteins). […] Biotinylated antibody (1/500 final dilution) was incubated with varying concentrations of test samples (standards or unknowns) overnight at 4° C., and then a 100 μl-aliquot of each sample was added to duplicate wells of the coated plates and incubated for 45 minutes at 37° C. After washing, 100 μl of alkaline phosphatase-conjugated streptavidin was added, and procedures as described above for the Direct ELISA were used to obtain optical density measurements. […] [formula]
where ODmax is OD in the absence of inhibitor, BKG is OD from nonspecific absorption of assay reagents and ODsample is the OD for a given concentration of standard or unknown sample.
An immunological assay, using an affinity-purified polyclonal antibody specific for MAA adducts, was employed to detect the presence of these adducts in livers of ethanol-fed rats. Since MAA adducts are likely composed of more than one distinct product, applicants proposed that 4-methyl-1,4-dihydropyridine-3,5-dicarbaldehyde (MDDC), derivatized to an ε-amino group of lysine, represents a structure for one of the major MAA-protein adducts. The purpose of this study was to characterize the antigen binding properties of the MAA specific antibody and determine whether MDDC epitopes are a major determinant of antibody recognition. A competitive ELISA, utilizing bovine serum albumin-MAA as the solid phase antigen, was used to test the binding specificity of the antibody.

[3] = biological target: T1, bovine serum albumin (BSA) (Bos taurus, UniProt P02769); experiment: Stable binding of acetaldehyde to proteins in the presence of MDA; type: biochemical; details: acetaldehyde 1 mM, 24 hours of incubation, 4-fold molar excess of MDA
T1 construct: purchased Sigma Chemical Co. (St. Louis, Mo.)
T1 sequence (P02769 25-607): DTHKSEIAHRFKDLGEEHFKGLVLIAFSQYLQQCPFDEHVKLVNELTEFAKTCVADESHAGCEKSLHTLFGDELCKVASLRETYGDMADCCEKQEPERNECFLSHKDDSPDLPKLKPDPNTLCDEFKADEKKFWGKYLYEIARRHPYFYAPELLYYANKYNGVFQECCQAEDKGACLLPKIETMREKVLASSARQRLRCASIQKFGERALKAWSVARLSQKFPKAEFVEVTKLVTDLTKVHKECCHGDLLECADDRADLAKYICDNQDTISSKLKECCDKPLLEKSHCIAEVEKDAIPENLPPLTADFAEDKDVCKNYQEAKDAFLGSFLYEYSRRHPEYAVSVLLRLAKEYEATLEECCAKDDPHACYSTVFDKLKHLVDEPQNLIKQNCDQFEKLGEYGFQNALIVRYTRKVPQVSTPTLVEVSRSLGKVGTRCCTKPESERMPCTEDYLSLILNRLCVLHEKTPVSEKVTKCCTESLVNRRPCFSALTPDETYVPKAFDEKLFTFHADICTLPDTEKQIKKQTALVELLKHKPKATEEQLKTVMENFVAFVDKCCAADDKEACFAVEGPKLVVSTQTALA
Procedure: Concentrations of acetaldehyde (0.1 mM or 1.0 mM) were incubated with various protein solutions in the absence and presence of varying concentrations of MDA. Incubations were conducted in phosphate buffer (0.1 M, pH 7.4) at 37° C. in polypropylene vessels that were sealed to minimize the loss of volatile radioactivity. The reactions were performed under nitrogen gas in the dark. During a 72-hr incubation period, aliquots were removed for stable acetaldehyde binding determinations and fluorescence measurements as previously described. Hoffmann, “Reaction of Acetaldehyde with Proteins: Formation of Stable Fluorescent Adducts”, Alcohol Clin Exp Res, 1993; 17:69-74. Briefly, postincubation, free and unstable-bound acetaldehyde were separated by exhaustive dialysis against phosphate buffer for 24 hours at 4° C. Radioactivity was then measured in the retenate and represented stably bound acetaldehyde. Results are expressed as nmoles acetaldehyde bound per mg of protein. Fluorescence measurements were obtained on post-dialysis samples using a Perkin Elmer LS-5B spectrophotofluorometer attached to a Perkin Elmer GP-100 graphics printer.
When acetaldehyde (1 mM) was incubated with bovine serum albumin (BSA) in the presence of varying concentrations of MDA over a 72-hour time course, MDA markedly stimulated the binding of acetaldehyde to BSA in a concentration-dependent manner. […]

For “BSA-MAA: bovine serum albumin modified with MAA (malondialdehyde-acetaldehyde adduct)”, the “antibody titer to the MAA adduct (tested on MSA-MAA)” value [1] was “significant antibody titer” and the “response to the autologous protein (MSA)” value [1] was “no response”.

In the case of `Cc1ncc(CO)c(C=O)c1O` [pyridoxal, reference compound], the “inhibition of antibody binding” value [2] is reported as “negligible inhibitions”.

`NC(=O)C1=CN([C@@H]2O[C@H](COP(=O)(O)OP(=O)(O)OC[C@H]3O[C@@H](n4cnc5c(N)ncnc54)[C@H](O)[C@@H]3O)[C@@H](O)[C@H]2O)C=CC1` [NADH, reference compound] was tested, and the “inhibition of antibody binding” value [2] was “negligible inhibitions”.

Work on `CCCCCCN1C=C(C=O)C(C)C(C=O)=C1` [1-hexyl-MDDC] yielded a 50% inhibitory concentration [2] of 4 pmoles/well.

In the case of `CC1C(C=O)=CN(C)C=C1C=O` [1-methyl MDDC], the 50% inhibitory concentration [2] is reported as 14 pmoles/well.

`O=CCC=O` [MDA, malondialdehyde] was tested, and the “stimulation of acetaldehyde binding to BSA” value [3] was 13 fold.

Work on `CC1C(C=O)=CNC=C1C=O` [1-hydrogen MDDC, 4-methyl-1,4-dihydropyridine-3,5-dicarbaldehyde] yielded a 50% inhibitory concentration [2] of 240 pmoles/well.
